Active and inactive are the calls of the source. The calls are words filed in the database; no cut-off is given here.
These compounds were tested against T1, 2-5A-dependent ribonuclease (Homo sapiens) (UniProt Q05823) (assay: Antagonist activity at human RNase L expressed in Escherichia coli BL21 (DE3) cells assessed as RNA cleavage using Cy5-C11-rUU-C7-BHQ2 as substrate by FRET assay in presence of natural activator pAAAA).
T1 sequence (whole entry): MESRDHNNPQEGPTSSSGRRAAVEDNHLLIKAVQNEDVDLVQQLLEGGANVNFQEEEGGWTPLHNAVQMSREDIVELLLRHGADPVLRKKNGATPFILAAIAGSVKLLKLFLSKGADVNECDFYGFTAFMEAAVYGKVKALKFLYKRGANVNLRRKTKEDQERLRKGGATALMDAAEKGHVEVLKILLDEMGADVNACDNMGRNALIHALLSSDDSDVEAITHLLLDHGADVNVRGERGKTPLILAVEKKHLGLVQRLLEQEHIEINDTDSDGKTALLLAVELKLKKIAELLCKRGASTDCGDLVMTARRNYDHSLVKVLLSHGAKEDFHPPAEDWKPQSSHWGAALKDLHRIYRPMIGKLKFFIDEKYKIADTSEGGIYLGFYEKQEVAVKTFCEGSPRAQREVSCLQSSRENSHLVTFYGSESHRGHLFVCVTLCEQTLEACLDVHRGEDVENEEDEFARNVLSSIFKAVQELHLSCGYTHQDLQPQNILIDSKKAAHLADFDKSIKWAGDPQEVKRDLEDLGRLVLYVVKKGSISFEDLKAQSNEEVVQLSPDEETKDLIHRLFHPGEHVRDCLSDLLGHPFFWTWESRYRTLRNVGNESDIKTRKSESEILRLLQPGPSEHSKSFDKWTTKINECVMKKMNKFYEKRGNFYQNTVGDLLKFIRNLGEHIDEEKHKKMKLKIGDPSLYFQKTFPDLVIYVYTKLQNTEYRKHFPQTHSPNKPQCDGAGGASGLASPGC
Format: functional
With `Nc1ncnc2c1ncn2[C@@H]1O[C@H](COP(=O)(O)O[C@@H]2[C@H](O)[C@@H](COP(=O)(O)CO[C@@H]3[C@@H](O)[C@@H](COP(=O)(O)CO[C@@H]4[C@@H](O)[C@@H](COP(=O)(O)O)O[C@H]4n4cnc5c(N)ncnc54)O[C@H]3n3cnc4c(N)ncnc43)O[C@H]2n2cnc3c(N)ncnc32)[C@@H](O)[C@H]1O` the inhibition was “inactive”.
With `Nc1ncnc2c1ncn2[C@@H]1O[C@H](COCP(=O)(O)O[C@@H]2[C@@H](O)[C@@H](COCP(=O)(O)O[C@@H]3[C@@H](O)[C@@H](COCP(=O)(O)O[C@@H]4[C@@H](O)[C@@H](COCP(=O)(O)O)O[C@H]4n4cnc5c(N)ncnc54)O[C@H]3n3cnc4c(N)ncnc43)O[C@H]2n2cnc3c(N)ncnc32)[C@H](O)[C@H]1O` the inhibition was “inactive”.
For `Nc1ncnc2c1ncn2[C@@H]1O[C@H](COCP(=O)(O)O[C@H]2[C@H](O)[C@@H](COCP(=O)(O)O[C@@H]3[C@H](O)[C@@H](COP(=O)(O)O[C@@H]4[C@H](O)[C@@H](COP(=O)(O)O)O[C@H]4n4cnc5c(N)ncnc54)O[C@H]3n3cnc4c(N)ncnc43)O[C@H]2n2cnc3c(N)ncnc32)[C@@H](O)[C@@H]1O`, the inhibition was “inactive”.
In the case of `Nc1ncnc2c1ncn2[C@@H]1O[C@H](COP(=O)(O)O[C@@H]2[C@H](O)[C@@H](COCP(=O)(O)O[C@@H]3[C@H](O)[C@@H](COP(=O)(O)O[C@@H]4[C@H](O)[C@@H](COCP(=O)(O)O)O[C@H]4n4cnc5c(N)ncnc54)O[C@H]3n3cnc4c(N)ncnc43)O[C@H]2n2cnc3c(N)ncnc32)[C@@H](O)[C@H]1O`, the inhibition is reported as “inactive”.
For `Nc1ncnc2c1ncn2[C@@H]1O[C@H](COP(=O)(O)O[C@@H]2[C@@H](O)[C@@H](COCP(=O)(O)O[C@@H]3[C@@H](O)[C@@H](COCP(=O)(O)O[C@@H]4[C@@H](O)[C@@H](COCP(=O)(O)O)O[C@H]4n4cnc5c(N)ncnc54)O[C@H]3n3cnc4c(N)ncnc43)O[C@H]2n2cnc3c(N)ncnc32)[C@@H](O)[C@H]1O`, the inhibition was “inactive”.
For `Nc1ncnc2c1ncn2[C@@H]1O[C@H](COCP(=O)(O)O[C@@H]2[C@H](O)[C@@H](COP(=O)(O)O[C@@H]3[C@H](O)[C@@H](COP(=O)(O)O[C@H]4[C@H](O)[C@@H](COCP(=O)(O)O)O[C@H]4n4cnc5c(N)ncnc54)O[C@H]3n3cnc4c(N)ncnc43)O[C@H]2n2cnc3c(N)ncnc32)[C@@H](O)[C@@H]1O`, the inhibition was “inactive”.
With `Nc1ncnc2c1ncn2[C@@H]1O[C@H](COP(=O)(O)O[C@H]2[C@H](O)[C@@H](COCP(=O)(O)O[C@H]3[C@H](O)[C@@H](COCP(=O)(O)O[C@@H]4[C@H](O)[C@@H](COP(=O)(O)O)O[C@H]4n4cnc5c(N)ncnc54)O[C@H]3n3cnc4c(N)ncnc43)O[C@H]2n2cnc3c(N)ncnc32)[C@@H](O)[C@H]1O` the inhibition was “inactive”.
For `Nc1ncnc2c1ncn2[C@@H]1O[C@H](COCP(=O)(O)O[C@@H]2[C@H](O)[C@@H](COCP(=O)(O)O[C@@H]3[C@H](O)[C@@H](COCP(=O)(O)O[C@@H]4[C@H](O)[C@@H](COP(=O)(O)O)O[C@H]4n4cnc5c(N)ncnc54)O[C@H]3n3cnc4c(N)ncnc43)O[C@H]2n2cnc3c(N)ncnc32)[C@@H](O)[C@H]1O`, the inhibition was “inactive”.
In the case of `Nc1ncnc2c1ncn2[C@@H]1O[C@H](COCP(=O)(O)O[C@@H]2[C@@H](O)[C@@H](COCP(=O)(O)O[C@@H]3[C@H](O)[C@@H](COP(=O)(O)O[C@@H]4[C@H](O)[C@@H](COP(=O)(O)O)O[C@H]4n4cnc5c(N)ncnc54)O[C@H]3n3cnc4c(N)ncnc43)O[C@H]2n2cnc3c(N)ncnc32)[C@H](O)[C@H]1O`, the inhibition is reported as “inactive”.
In the case of `Nc1ncnc2c1ncn2[C@@H]1O[C@H](COCP(=O)(O)O[C@@H]2[C@H](O)[C@@H](COP(=O)(O)O[C@@H]3[C@H](O)[C@@H](COCP(=O)(O)O[C@@H]4[C@H](O)[C@@H](COP(=O)(O)O)O[C@H]4n4cnc5c(N)ncnc54)O[C@H]3n3cnc4c(N)ncnc43)O[C@H]2n2cnc3c(N)ncnc32)[C@@H](O)[C@H]1O`, the inhibition is reported as “inactive”.

Source: ChEMBL document CHEMBL2057064, “Activation of human RNase L by 2'- and 5'-O-methylphosphonate-modified oligoadenylates” (Bioorg Med Chem Lett, 2012)
